Our source for the Activity values is ChEMBL document CHEMBL1147316, “Turbinaric acid, a cytotoxic secosqualene carboxylic acid from the brown alga Turbinaria ornata” (J Nat Prod, 1989).

The test system of one assay is Melanoma tumor cell line. Put plainly: Cytotoxicity against mouse melanoma cells at 26.6 ug/mL. The class given is functional, cell-based.
A further assay has as its system Cancer cell lines. The assay can be described thus: Cytotoxicity against human colon cancer cells at 12.5 ug/mL. It counts as functional, cell-based.

SMILES strings stand for the structures. Active and inactive are the calls of the source. The rule behind the calls is not given here.

Turning to `CC(C)=CCC/C(C)=C/CC/C(C)=C/CC/C=C(\C)CC/C=C(\C)CCC(=O)O`, the outcome in the assay with Melanoma tumor cell line and with Cancer cell lines was Active.
